Source: the kinase profiling compilation of Christmann-Franck et al. (2016)
Values joined by “and” are separate entries in the source; they are usually repeats but may differ in a detail not shown here. Equal entries are not always repeated.

Experiments:
Assay in all cases: radiometric filter-binding kinase assay, Kinase HotSpot
Conditions in all cases: compound 0.5 µM; ATP 10 µM
[1] = target: FGFR3 (human) (UniProt P22607)
[2] = target: SGK2 (human) (UniProt Q9HBY8)
[3] = target: CLK1 (human) (UniProt P49759)
[4] = target: DYRK3 (human) (UniProt O43781)
[5] = target: MUSK (human) (UniProt O15146)
[6] = target: CDK9 CCNT1 (human) (UniProt P50750+O60563)
Chain of CDK9 CCNT1 (human) (O60563 whole entry, looked up): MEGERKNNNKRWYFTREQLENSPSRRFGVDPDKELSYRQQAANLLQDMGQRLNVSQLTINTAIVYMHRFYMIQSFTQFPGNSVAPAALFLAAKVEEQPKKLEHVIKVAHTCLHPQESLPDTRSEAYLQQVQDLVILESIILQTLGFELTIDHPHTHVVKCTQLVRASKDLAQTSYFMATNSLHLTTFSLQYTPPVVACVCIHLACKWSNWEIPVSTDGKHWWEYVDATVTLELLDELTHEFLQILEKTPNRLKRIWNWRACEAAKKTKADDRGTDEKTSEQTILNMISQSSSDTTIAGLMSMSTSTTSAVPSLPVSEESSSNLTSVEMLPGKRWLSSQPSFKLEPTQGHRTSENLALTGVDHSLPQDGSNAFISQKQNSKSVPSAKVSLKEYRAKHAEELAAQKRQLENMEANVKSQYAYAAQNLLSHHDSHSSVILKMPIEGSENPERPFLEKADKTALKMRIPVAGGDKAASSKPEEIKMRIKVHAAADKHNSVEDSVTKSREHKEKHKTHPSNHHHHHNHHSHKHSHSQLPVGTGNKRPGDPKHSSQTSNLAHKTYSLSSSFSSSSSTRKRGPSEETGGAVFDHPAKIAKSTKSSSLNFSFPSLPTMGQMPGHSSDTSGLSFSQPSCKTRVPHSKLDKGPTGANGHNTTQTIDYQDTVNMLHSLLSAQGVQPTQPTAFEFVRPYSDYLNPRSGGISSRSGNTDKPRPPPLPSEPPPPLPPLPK
Chain of CDK9 CCNT1 (human) (P50750 whole entry, looked up): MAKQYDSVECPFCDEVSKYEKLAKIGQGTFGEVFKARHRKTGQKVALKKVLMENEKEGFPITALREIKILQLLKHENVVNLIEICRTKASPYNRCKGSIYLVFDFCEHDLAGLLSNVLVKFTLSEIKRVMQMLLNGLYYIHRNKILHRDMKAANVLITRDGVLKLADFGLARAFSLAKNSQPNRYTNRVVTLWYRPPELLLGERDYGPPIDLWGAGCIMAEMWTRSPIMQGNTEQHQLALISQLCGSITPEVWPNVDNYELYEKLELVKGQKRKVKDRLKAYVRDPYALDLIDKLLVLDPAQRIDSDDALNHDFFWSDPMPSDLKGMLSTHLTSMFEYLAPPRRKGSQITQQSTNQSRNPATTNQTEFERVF

[7] = target: STK39 (human) (UniProt Q9UEW8)
[8] = target: TGFBR2 (human) (UniProt P37173)
[9] = target: CDK4 CCND1 (human) (UniProt P24385+P11802)
[10] = target: FRK (human) (UniProt P42685)
[11] = target: CDK5 CDK5R1 p35 (human) (UniProt Q00535+Q15078)
[12] = target: CDC42BPB (human) (UniProt Q9Y5S2)
Chain of CDC42BPB (human) (Q9Y5S2 whole entry, looked up): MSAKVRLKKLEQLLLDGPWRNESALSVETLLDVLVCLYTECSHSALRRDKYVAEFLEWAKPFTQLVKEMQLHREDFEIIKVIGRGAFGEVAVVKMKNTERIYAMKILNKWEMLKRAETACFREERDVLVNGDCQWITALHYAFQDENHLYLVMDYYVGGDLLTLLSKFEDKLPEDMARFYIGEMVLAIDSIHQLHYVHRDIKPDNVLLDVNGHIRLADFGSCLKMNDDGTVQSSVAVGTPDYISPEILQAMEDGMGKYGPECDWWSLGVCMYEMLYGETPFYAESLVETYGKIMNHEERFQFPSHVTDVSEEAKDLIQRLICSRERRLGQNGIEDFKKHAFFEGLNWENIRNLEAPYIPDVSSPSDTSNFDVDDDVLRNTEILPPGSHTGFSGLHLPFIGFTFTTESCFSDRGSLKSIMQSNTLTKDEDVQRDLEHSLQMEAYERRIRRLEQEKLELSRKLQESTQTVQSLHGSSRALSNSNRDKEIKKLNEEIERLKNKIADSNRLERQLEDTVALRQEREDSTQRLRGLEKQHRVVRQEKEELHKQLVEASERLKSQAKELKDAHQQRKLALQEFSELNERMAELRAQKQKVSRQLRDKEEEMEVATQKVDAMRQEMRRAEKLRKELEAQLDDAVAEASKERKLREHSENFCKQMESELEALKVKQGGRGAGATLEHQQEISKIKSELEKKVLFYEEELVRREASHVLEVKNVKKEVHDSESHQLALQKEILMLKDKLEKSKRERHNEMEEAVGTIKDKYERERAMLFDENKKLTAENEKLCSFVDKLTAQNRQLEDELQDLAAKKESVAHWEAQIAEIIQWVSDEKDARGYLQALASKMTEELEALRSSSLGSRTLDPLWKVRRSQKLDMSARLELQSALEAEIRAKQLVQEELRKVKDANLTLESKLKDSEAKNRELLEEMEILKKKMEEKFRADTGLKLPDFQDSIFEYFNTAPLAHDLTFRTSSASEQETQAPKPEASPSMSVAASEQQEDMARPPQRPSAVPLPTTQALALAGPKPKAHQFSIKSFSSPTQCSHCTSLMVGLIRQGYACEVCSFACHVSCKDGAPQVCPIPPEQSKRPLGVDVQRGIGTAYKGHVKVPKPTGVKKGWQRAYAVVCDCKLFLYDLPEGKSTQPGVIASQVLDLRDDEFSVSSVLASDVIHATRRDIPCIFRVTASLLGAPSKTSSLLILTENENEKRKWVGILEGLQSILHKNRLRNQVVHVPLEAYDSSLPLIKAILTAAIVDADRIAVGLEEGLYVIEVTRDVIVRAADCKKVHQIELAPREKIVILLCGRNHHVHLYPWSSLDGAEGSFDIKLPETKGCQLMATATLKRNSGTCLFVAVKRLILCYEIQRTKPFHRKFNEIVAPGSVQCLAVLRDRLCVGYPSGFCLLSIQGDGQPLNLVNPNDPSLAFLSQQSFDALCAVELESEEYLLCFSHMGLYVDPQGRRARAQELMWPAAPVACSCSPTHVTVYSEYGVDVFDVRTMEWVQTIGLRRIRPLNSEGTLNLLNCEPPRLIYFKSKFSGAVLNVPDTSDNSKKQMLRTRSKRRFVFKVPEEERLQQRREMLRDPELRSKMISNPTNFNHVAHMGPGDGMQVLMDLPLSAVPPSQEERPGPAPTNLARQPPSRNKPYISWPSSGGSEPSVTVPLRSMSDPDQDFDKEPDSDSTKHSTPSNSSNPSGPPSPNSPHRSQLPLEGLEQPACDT

[13] = target: BRSK1 (human) (UniProt Q8TDC3)
[14] = target: JAK3 JH1 JH2 (human) (UniProt P52333)
[15] = target: RPS6KB2 (human) (UniProt Q9UBS0)
[16] = target: CAMK1D (human) (UniProt Q8IU85)
[17] = target: PRKD3 (human) (UniProt O94806)
[18] = target: BLK (human) (UniProt P51451)
[19] = target: PIM2 (human) (UniProt Q9P1W9)
[20] = target: GRK5 (human) (UniProt P34947)
Chain of GRK5 (human) (P34947 whole entry, looked up): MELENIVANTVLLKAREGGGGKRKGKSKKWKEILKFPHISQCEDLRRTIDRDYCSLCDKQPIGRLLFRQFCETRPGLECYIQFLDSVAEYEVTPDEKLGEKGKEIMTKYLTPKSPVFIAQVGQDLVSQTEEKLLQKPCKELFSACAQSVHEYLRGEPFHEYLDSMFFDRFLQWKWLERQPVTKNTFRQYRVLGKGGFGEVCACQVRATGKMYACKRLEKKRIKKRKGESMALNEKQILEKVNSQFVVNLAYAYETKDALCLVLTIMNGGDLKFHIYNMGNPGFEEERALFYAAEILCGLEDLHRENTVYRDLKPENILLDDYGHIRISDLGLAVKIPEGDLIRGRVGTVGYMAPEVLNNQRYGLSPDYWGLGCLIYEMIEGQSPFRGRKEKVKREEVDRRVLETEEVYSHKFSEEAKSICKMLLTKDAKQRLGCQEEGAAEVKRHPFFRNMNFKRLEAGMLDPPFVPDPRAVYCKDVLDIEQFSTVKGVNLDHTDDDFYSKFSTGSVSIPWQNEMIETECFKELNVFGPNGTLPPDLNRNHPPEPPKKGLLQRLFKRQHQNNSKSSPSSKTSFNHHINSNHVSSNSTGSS

[21] = target: MAP3K3 (human) (UniProt Q99759)
[22] = target: CLK3 (human) (UniProt P49761)
[23] = target: WNK2 (human) (UniProt Q9Y3S1)
[24] = target: CDK4 CCND3 (human) (UniProt P30281+P11802)
[25] = target: LIMK1 (human) (UniProt P53667)
Chain of LIMK1 (human) (P53667 whole entry, looked up): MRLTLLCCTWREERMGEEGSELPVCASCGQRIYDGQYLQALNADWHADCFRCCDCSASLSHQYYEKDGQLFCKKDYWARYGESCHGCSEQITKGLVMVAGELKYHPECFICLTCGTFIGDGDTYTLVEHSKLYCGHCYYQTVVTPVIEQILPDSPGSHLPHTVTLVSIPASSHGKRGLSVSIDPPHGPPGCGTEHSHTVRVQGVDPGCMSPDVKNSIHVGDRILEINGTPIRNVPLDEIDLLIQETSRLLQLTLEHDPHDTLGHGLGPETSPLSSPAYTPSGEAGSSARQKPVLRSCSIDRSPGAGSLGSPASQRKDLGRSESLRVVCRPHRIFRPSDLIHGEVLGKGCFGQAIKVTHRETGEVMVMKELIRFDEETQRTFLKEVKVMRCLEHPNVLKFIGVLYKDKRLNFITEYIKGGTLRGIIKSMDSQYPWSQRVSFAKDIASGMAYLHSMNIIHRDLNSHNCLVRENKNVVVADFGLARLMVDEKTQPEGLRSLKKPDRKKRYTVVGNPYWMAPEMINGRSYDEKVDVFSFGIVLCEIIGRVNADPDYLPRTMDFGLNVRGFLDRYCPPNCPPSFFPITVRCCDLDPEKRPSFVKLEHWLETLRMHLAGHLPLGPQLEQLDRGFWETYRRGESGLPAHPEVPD

[26] = target: MARK2 (human) (UniProt Q7KZI7)
[27] = target: LCK (human) (UniProt P06239)
[28] = target: EPHB4 (human) (UniProt P54760)
[29] = target: CAMK1 (human) (UniProt Q14012)
[30] = target: AXL (human) (UniProt P30530)
[31] = target: RPS6KB1 (human) (UniProt P23443)
Chain of RPS6KB1 (human) (P23443 whole entry, looked up): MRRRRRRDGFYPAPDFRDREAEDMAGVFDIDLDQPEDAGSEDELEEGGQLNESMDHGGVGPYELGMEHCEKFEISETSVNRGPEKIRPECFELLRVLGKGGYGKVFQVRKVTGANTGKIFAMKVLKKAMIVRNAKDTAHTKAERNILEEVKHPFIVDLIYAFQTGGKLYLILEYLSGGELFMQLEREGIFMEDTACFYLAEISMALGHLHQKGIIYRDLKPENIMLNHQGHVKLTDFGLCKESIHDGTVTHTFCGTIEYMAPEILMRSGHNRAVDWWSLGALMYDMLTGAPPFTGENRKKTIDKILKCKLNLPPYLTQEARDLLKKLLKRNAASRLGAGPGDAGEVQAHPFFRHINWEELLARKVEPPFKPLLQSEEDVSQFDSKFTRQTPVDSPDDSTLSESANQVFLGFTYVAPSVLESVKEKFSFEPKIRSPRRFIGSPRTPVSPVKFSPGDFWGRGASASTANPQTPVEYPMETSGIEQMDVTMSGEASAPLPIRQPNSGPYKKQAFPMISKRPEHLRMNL

[32] = target: ABL1 (human) (UniProt P00519)
[33] = target: ROS1 (human) (UniProt P08922)
[34] = target: ULK2 (human) (UniProt Q8IYT8)
[35] = target: PRKG1 (human) (UniProt Q13976)
[36] = target: DMPK (human) (UniProt Q09013)
[37] = target: CSNK1A1 (human) (UniProt P48729)
Chain of CSNK1A1 (human) (P48729 whole entry, looked up): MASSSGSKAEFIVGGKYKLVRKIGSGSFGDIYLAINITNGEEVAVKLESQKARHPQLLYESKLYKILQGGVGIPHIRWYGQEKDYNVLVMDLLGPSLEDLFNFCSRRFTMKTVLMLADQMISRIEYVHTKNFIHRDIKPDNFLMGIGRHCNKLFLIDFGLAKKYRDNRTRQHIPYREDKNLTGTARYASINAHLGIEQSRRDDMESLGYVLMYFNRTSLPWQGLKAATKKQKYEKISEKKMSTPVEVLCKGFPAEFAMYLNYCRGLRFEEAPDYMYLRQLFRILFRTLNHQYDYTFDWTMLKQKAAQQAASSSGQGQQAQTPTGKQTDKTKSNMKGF

[38] = target: RIPK2 (human) (UniProt O43353)
[39] = target: TAOK1 (human) (UniProt Q7L7X3)
[40] = target: YES1 (human) (UniProt P07947)
[41] = target: ROCK2 (human) (UniProt O75116)

CN(C)S(=O)(=O)c1ccc2c(c1)/C(=C/c1cc3c([nH]1)CCCC3)C(=O)N2
residual activity [1]: 57.1% | residual activity [2]: 101% | residual activity [3]: 82.6% | residual activity [4]: 99.1% | residual activity [5]: 82.8% | residual activity [6]: 95.9% | residual activity [7]: 99.5% | residual activity [8]: 129% | residual activity [9]: 107% | residual activity [10]: 86% | residual activity [11]: 76.9% | residual activity [12]: 101% | residual activity [13]: 32.4% | residual activity [14]: 64.8% | residual activity [15]: 92.6% | residual activity [16]: 99.8% | residual activity [17]: 90.4% | residual activity [18]: 13.9% | residual activity [19]: 108% | residual activity [20]: 95.3% | residual activity [21]: 48.7% | residual activity [22]: 92.9% | residual activity [23]: 101% | residual activity [24]: 99.1% | residual activity [25]: 60.7% | residual activity [26]: 61.7% | residual activity [27]: 34.7% | residual activity [28]: 85.8% | residual activity [29]: 107% | residual activity [30]: 39.7% | residual activity [31]: 96.5% | residual activity [32]: 57.3% | residual activity [33]: 83.3% | residual activity [34]: 26.3% | residual activity [35]: 82.5% and 88.6% | residual activity [36]: 102% | residual activity [37]: 91.7% | residual activity [38]: 88.9% | residual activity [39]: 85.8% | residual activity [40]: 13.5% | residual activity [41]: 88.2%

CO[C@@H]1[C@H](N(C)C(=O)c2ccccc2)C[C@H]2O[C@]1(C)n1c3ccccc3c3c4c(c5c6ccccc6n2c5c31)C(=O)NC4
residual activity [2]: 99% | residual activity [4]: 98.5% | residual activity [5]: 44.6% | residual activity [6]: 64.2% | residual activity [7]: 96% | residual activity [8]: 99.1% | residual activity [10]: 65.8% | residual activity [11]: 74.1% | residual activity [12]: 95.9% | residual activity [14]: 0.781% | residual activity [15]: 55.9% | residual activity [20]: 93.3% | residual activity [21]: 31% | residual activity [22]: 89.6% | residual activity [23]: 111% | residual activity [25]: 19.6% | residual activity [27]: 19.8% | residual activity [28]: 110% | residual activity [30]: 106% | residual activity [31]: 19.4% | residual activity [32]: 82.7% | residual activity [33]: 6.53% | residual activity [34]: 95.7% | residual activity [35]: 18.8% and 8.37% | residual activity [36]: 112% | residual activity [37]: 96.2% | residual activity [38]: 82.8% | residual activity [39]: 60.8% | residual activity [40]: 20.6% | residual activity [41]: 80.9%

O=C(c1cc2cc(O)ccc2[nH]1)c1cc2cc(O)ccc2[nH]1
residual activity [1]: 92.1% | residual activity [2]: 94.3% | residual activity [3]: 82.1% | residual activity [4]: 115% | residual activity [5]: 55.1% | residual activity [6]: 76.6% | residual activity [7]: 97.6% | residual activity [8]: 123% | residual activity [9]: 91.5% | residual activity [10]: 86.1% | residual activity [11]: 57.3% | residual activity [12]: 96.2% | residual activity [13]: 53.6% | residual activity [14]: 94.5% | residual activity [15]: 102% | residual activity [16]: 91.5% | residual activity [17]: 54.9% | residual activity [18]: 49.7% | residual activity [19]: 108% | residual activity [20]: 104% | residual activity [21]: 96% | residual activity [22]: 24.8% | residual activity [23]: 96.6% | residual activity [24]: 105% | residual activity [25]: 87.9% | residual activity [26]: 59.9% | residual activity [27]: 52% | residual activity [28]: 89.3% | residual activity [29]: 97.4% | residual activity [30]: 90.1% | residual activity [31]: 85% | residual activity [32]: 27.8% | residual activity [33]: 105% | residual activity [34]: 94.5% | residual activity [35]: 84.3% and 90% | residual activity [36]: 96.9% | residual activity [37]: 96.3% | residual activity [38]: 37.8% | residual activity [39]: 85.6% | residual activity [40]: 18.8% | residual activity [41]: 92.9%

CC(C)(C)c1cc(C=C(C#N)C#N)cc(Br)c1O
residual activity [1]: 92.8% | residual activity [2]: 120% | residual activity [3]: 112% | residual activity [4]: 102% | residual activity [5]: 103% | residual activity [6]: 95.4% | residual activity [7]: 87.6% | residual activity [8]: 93.8% | residual activity [9]: 115% | residual activity [10]: 99.3% | residual activity [11]: 102% | residual activity [12]: 103% | residual activity [13]: 94% | residual activity [14]: 110% | residual activity [15]: 102% | residual activity [16]: 111% | residual activity [17]: 92.7% | residual activity [18]: 97.9% | residual activity [19]: 115% | residual activity [20]: 108% | residual activity [21]: 118% | residual activity [22]: 122% | residual activity [23]: 126% | residual activity [24]: 96.5% | residual activity [25]: 98.5% | residual activity [26]: 81.6% | residual activity [27]: 87.8% | residual activity [29]: 97.5% | residual activity [30]: 103% | residual activity [31]: 91.3% | residual activity [32]: 59.8% | residual activity [33]: 93.2% | residual activity [34]: 103% | residual activity [35]: 103% and 107% | residual activity [36]: 96.9% | residual activity [37]: 84.5% | residual activity [38]: 32.8% | residual activity [39]: 97.9% | residual activity [40]: 83% | residual activity [41]: 95.6%

O=C1c2ccccc2-c2nc3nnnn3nc21
residual activity [1]: 26.7% | residual activity [2]: 75.1% | residual activity [3]: 79.4% | residual activity [4]: 88.6% | residual activity [5]: 107% | residual activity [6]: 97% | residual activity [7]: 89.2% | residual activity [8]: 93.4% | residual activity [9]: 59.9% | residual activity [10]: 33.9% | residual activity [11]: 79.1% | residual activity [12]: 82.6% | residual activity [13]: 84.8% | residual activity [14]: 90.4% | residual activity [15]: 86.3% | residual activity [16]: 93.9% | residual activity [17]: 83.4% | residual activity [18]: 109% | residual activity [19]: 92.8% | residual activity [20]: 74.3% | residual activity [21]: 134% | residual activity [22]: 81.2% | residual activity [23]: 143% | residual activity [24]: 68.1% | residual activity [25]: 65% | residual activity [26]: 94.2% | residual activity [27]: 70.5% | residual activity [28]: 97.1% | residual activity [29]: 68.7% | residual activity [30]: 10.3% | residual activity [31]: 85.8% | residual activity [32]: 89.7% | residual activity [33]: 91.1% | residual activity [34]: 105% | residual activity [35]: 109% and 133% | residual activity [36]: 84.8% | residual activity [37]: 85.8% | residual activity [38]: 101% | residual activity [39]: 90.2% | residual activity [40]: 89.1% | residual activity [41]: 81.7%
